# Laboratory results reported in patent US10858356B2, “Pyrazolopyridine derivative having GLP-1 receptor agonist effect” (Chugai Seiyaku Kabushiki Kaisha, priority 2016, dated 2020).
# Target: human GLP1R (Homo sapiens (Human), UniProt P43220)
# Assay: In vitro cAMP signal activation in human GLP1R stably-expressing cell line (hGLP1R-HEK293)
# Format: cell-based
# Conditions: cAMP concentration in hGLP1R-HEK293; 100% = 1 nM human GLP-1 (7-37)
# Description: <Test Example 1> Measurement of In Vitro cAMP Signal Activation of a Compound in Human GLP1R
# A human GLP1R stably-expressing cell line (hGLP1R-HEK293) was used in the experiment. The cells were cultured in a Dulbecco's modified Eagle's medium (DMEM) containing 10% fetal bovine serum (Sigma-Aldrich), 100 units/mL penicillin G and 100 μg/mL streptomycin sulfate (Gibco), and 500 μg/mL Geneticin (Gibco), under a moist atmosphere containing 5% CO2, at 37° C.
# hGLP1R-HEK293 was seeded in 96 well plates at 2.0×10^4 cells per well and cultured over night. The medium for culturing the cells was changed to 50 μL of Medium A (DMEM, 20 mM HEPES, 0.05% BSA, 0.5 mM 3-isobutyl-1-methylxanthine) the next day, and the cells were incubated at 37° C. for 30 min. Then, 50 μL of Medium B (DMEM, 20 mM HEPES, 0.05% BSA, 0.5 mM 3-isobutyl-1-methylxanthine) containing GLP-1 or the compound was added, and the cells were incubated at 37° C. for an additional 30 min. Then, 100 μL of Assay lysis buffer (Applied Bioscience) was added, and the cells were incubated at 37° C. for 30 min. The cAMP concentration was quantified using cAMP HiRange kit (Cisbio Bioassays).
# By setting the cAMP concentration when the human GLP-1 (7-37) was put into action at a concentration of 1 nM to 100%, the cAMP concentration of each well was converted to a reaction rate (%).
# Sequence of human GLP1R (P43220 24-463): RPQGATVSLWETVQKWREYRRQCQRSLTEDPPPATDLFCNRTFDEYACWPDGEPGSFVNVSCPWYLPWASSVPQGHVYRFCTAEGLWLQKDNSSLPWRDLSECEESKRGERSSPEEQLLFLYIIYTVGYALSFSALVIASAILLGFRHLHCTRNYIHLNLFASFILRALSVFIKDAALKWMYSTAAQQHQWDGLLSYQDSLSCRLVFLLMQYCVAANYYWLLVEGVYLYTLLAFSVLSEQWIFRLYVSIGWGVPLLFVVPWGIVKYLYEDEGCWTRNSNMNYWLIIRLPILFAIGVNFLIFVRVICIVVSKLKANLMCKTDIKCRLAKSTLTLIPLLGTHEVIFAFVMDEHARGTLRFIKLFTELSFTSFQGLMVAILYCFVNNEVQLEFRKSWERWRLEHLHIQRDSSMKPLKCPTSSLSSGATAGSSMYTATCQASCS
row,EC50,Structure (SMILES)
1,0.77 nM,"Cc1cc(-n2nc3c(c2-n2ccn(-c4ccc5c(cnn5CCF)c4)c2=O)[C@H](C)N(C(=O)c2cc4cc(C5CCOCC5)ccc4n2[C@@]2(c4noc(=O)[nH]4)C[C@@H]2C)CC3)cc(C)c1F [Example 26, 3-[(1S,2S)-1-[2-[(4S)-2-(4-fluoro-3,5-dimethylphenyl)-3-[3-[1-(2-fluoroethyl)indazol-5-yl]-2-oxoimidazol-1-yl]-4-methyl-6,7-dihydro-4H-pyrazolo[4,3-c]pyridine-5-carbonyl]-5-(oxan-4-yl)indol-1-yl]-2-methylcyclopropyl]-4H-1,2,4-oxadiazol-5-one]"
2,3.9 nM,"Cc1cc(-n2nc3c(c2-n2ccn(-c4ccc5c(cnn5C)c4)c2=O)CN(C(=O)c2cc4cc(C5CCOCC5)ccc4n2[C@@]2(c4noc(=O)[nH]4)C[C@@H]2C)CC3)cc(C)c1F [compound 54, 3-[(1S,2S)-1-[2-[2-(4-fluoro-3,5-dimethylphenyl)-3-[3-(1-methylindazol-5-yl)-2-oxoimidazol-1-yl]-6,7-dihydro-4H-pyrazolo[4,3-c]pyridine-5-carbonyl]-5-(oxan-4-yl)indol-1-yl]-2-methylcyclopropyl]-4H-1,2,4-oxadiazol-5-one]"
3,1.8 nM,"Cc1cc(-n2nc3c(c2-n2ccn(-c4ccc5c(cnn5C)c4F)c2=O)[C@H](C)N(C(=O)c2cc4cc(C5CCOCC5)ccc4n2[C@@]2(c4noc(=O)[nH]4)C[C@@H]2C)CC3)cc(C)c1F [Example 23, 3-[(1S,2S)-1-[2-[(4S)-2-(4-fluoro-3,5-dimethylphenyl)-3-[3-(4-fluoro-1-methylindazol-5-yl)-2-oxoimidazol-1-yl]-4-methyl-6,7-dihydro-4H-pyrazolo[4,3-c]pyridine-5-carbonyl]-5-(oxan-4-yl)indol-1-yl]-2-methylcyclopropyl]-4H-1,2,4-oxadiazol-5-one]"
4,1.8 nM,"Cc1cc(-n2nc3c(c2-n2ccn(-c4ccc5c(cnn5C)c4Cl)c2=O)[C@H](C)N(C(=O)c2cc4cc([C@H]5CCOC(C)(C)C5)ccc4n2[C@@]2(c4noc(=O)[nH]4)C[C@@H]2C)CC3)cc(C)c1F [compound 68, 3-[(1S,2S)-1-[2-[(4S)-3-[3-(4-chloro-1-methylindazol-5-yl)-2-oxoimidazol-1-yl]-2-(4-fluoro-3,5-dimethylphenyl)-4-methyl-6,7-dihydro-4H-pyrazolo[4,3-c]pyridine-5-carbonyl]-5-[(4S)-2,2-dimethyloxan-4-yl]indol-1-yl]-2-methylcyclopropyl]-4H-1,2,4-oxadiazol-5-one]"
5,1.9 nM,"Cc1cc(-n2nc3c(c2-n2ccn(-c4ccc5c(cnn5CC(F)(F)F)c4F)c2=O)[C@H](C)N(C(=O)c2cc4cc(C5CCOCC5)ccc4n2[C@@]2(c4noc(=O)[nH]4)C[C@@H]2C)CC3)cc(C)c1F [Example 28, 3-[(1S,2S)-1-[2-[(4S)-2-(4-fluoro-3,5-dimethylphenyl)-3-[3-[4-fluoro-1-(2,2,2-trifluoroethyl)indazol-5-yl]-2-oxoimidazol-1-yl]-4-methyl-6,7-dihydro-4H-pyrazolo[4,3-c]pyridine-5-carbonyl]-5-(oxan-4-yl)indol-1-yl]-2-methylcyclopropyl]-4H-1,2,4-oxadiazol-5-one]"
6,2.5 nM,"Cc1cc(-n2nc3c(c2-n2ccn(-c4ccc5c(c4)CCOC5(C)C)c2=O)[C@H](C)N(C(=O)c2cc4cc(C5CCOCC5)ccc4n2[C@@]2(c4noc(=O)[nH]4)C[C@@H]2C)CC3)cc(C)c1F [Example 24, 3-[(1S,2S)-1-[2-[(4S)-3-[3-(1,1-dimethyl-3,4-dihydroisochromen-6-yl)-2-oxoimidazol-1-yl]-2-(4-fluoro-3,5-dimethylphenyl)-4-methyl-6,7-dihydro-4H-pyrazolo[4,3-c]pyridine-5-carbonyl]-5-(oxan-4-yl)indol-1-yl]-2-methylcyclopropyl]-4H-1,2,4-oxadiazol-5-one]"

# The remaining lines, values behind:
row,Structure (SMILES),EC50
1,"COCCn1ncc2cc(-n3ccn(-c4c5c(nn4-c4cc(C)c(F)c(C)c4)CCN(C(=O)c4cc6cc(N7CCOC(C)(C)C7)ccc6n4[C@@]4(c6noc(=O)[nH]6)C[C@@H]4C)C5)c3=O)ccc21 [Example 7, 3-[(1S,2S)-1-[5-(2,2-dimethylmorpholin-4-yl)-2-[2-(4-fluoro-3,5-dimethylphenyl)-3-[3-[1-(2-methoxyethyl)indazol-5-yl]-2-oxoimidazol-1-yl]-6,7-dihydro-4H-pyrazolo[4,3-c]pyridine-5-carbonyl]indol-1-yl]-2-methylcyclopropyl]-4H-1,2,4-oxadiazol-5-one]",3.2 nM
2,Cc1cc(-n2nc3c(c2-n2ccn(-c4cc5cnn(C)c5cc4F)c2=O)[C@H](C)N(C(=O)c2cc4cc([C@H]5CCOC(C)(C)C5)ccc4n2[C@@]2(c4noc(=O)[nH]4)C[C@@H]2C)CC3)cc(C)c1F [compound 70],1.5 nM
3,"Cc1cc(-n2nc3c(c2-n2ccn(-c4ccc5c(cnn5C)c4)c2=O)CN(C(=O)c2cc4cc([C@H]5CCOC(C)(C)C5)ccc4n2[C@@]2(c4noc(=O)[nH]4)C[C@@H]2C)CC3)cc(C)c1F [compound 59, 3-[(1S,2S)-1-[5-[(4S)-2,2-dimethyloxan-4-yl]-2-[2-(4-fluoro-3,5-dimethylphenyl)-3-[3-(1-methylindazol-5-yl)-2-oxoimidazol-1-yl]-6,7-dihydro-4H-pyrazolo[4,3-c]pyridine-5-carbonyl]indol-1-yl]-2-methylcyclopropyl]-4H-1,2,4-oxadiazol-5-one]",1.5 nM
4,"Cc1cc(-n2nc3c(c2-n2ccn(-c4ccc5c(cnn5C)c4F)c2=O)[C@H](C)N(C(=O)c2cc4cc([C@H]5CCOC(C)(C)C5)ccc4n2[C@@]2(c4noc(=O)[nH]4)C[C@@H]2C)CC3)cc(C)c1Cl [compound 65, 3-[(1S,2S)-1-[2-[(4S)-2-(4-chloro-3,5-dimethylphenyl)-3-[3-(4-fluoro-1-methylindazol-5-yl)-2-oxoimidazol-1-yl]-4-methyl-6,7-dihydro-4H-pyrazolo[4,3-c]pyridine-5-carbonyl]-5-[(4S)-2,2-dimethyloxan-4-yl]indol-1-yl]-2-methylcyclopropyl]-4H-1,2,4-oxadiazol-5-one]",3.5 nM
5,"Cc1cc(-n2nc3c(c2-n2ccn(-c4ccc5c(cnn5C)c4F)c2=O)[C@H](C)N(C(=O)c2cc4cc([C@H]5CCO[C@@H](C)C5)ccc4n2[C@@]2(c4noc(=O)[nH]4)C[C@@H]2C)CC3)cc(C)c1F [Example 41, 3-[(1S,2S)-1-[2-[(4S)-2-(4-fluoro-3,5-dimethylphenyl)-3-[3-(4-fluoro-1-methylindazol-5-yl)-2-oxoimidazol-1-yl]-4-methyl-6,7-dihydro-4H-pyrazolo[4,3-c]pyridine-5-carbonyl]-5-[(2S,4S)-2-methyloxan-4-yl]indol-1-yl]-2-methylcyclopropyl]-4H-1,2,4-oxadiazol-5-one]",2.4 nM
6,"Cc1cc(-n2nc3c(c2-n2ccn(-c4ccc5c(cnn5CC5(C)COC5)c4F)c2=O)[C@H](C)N(C(=O)c2cc4cc([C@H]5CCOC(C)(C)C5)ccc4n2[C@@]2(c4noc(=O)[nH]4)C[C@@H]2C)CC3)cc(C)c1F [Example 37, 3-[(1S,2S)-1-[5-[(4S)-2,2-dimethyloxan-4-yl]-2-[(4S)-2-(4-fluoro-3,5-dimethylphenyl)-3-[3-[4-fluoro-1-[(3-methyloxetan-3-yl)methyl]indazol-5-yl]-2-oxoimidazol-1-yl]-4-methyl-6,7-dihydro-4H-pyrazolo[4,3-c]pyridine-5-carbonyl]indol-1-yl]-2-methylcyclopropyl]-4H-1,2,4-oxadiazol-5-one]",2.5 nM
